Experimental data: patent US10077288B2, “Hydroxystatin derivatives for the treatment of arthrosis” (Merck Patent GmbH, priority 2012, dated 2018)

Tests used:
[1] = Stability in bovine synovial fluid; format: in vitro ADME; details: 1 μM, up to 48 h at 37° C.
Procedure: EXAMPLE 7: STABILITY OF THE COMPOUNDS ACCORDING TO THE INVENTION IN BOVINE SYNOVIAL FLUID
In the preparation of bovine explants (for the diffusion chamber or other assays), either cow hoof (metacarpal joints) or cow knee is used. The synovial fluid can be obtained from both joints. To this end, the synovial fluid is carefully removed from the open joint using a 10 ml syringe and a cannula and transferred into prepared 2 ml Eppendorf vessels. The Eppendorf vessels are labelled depending on the animal (cow passport is available). […] If this is the case, the synovial fluid will become a reddish colour and must consequently be discarded. The synovial fluid is basically highly viscous and clear to yellowish in colour. The removal together with a macroscopic analysis of the synovial fluid is documented.
In order to check the stability of individual compounds, a pool of four different bovine synovial fluids is mixed. To this end, about 1 ml per SF is used. The mixture is prepared directly in a 5 ml glass vessel. The SFs are mixed thoroughly, but carefully. No air bubbles or foam should form. To this end, a vortex unit is used at the lowest speed. The compounds to be tested are tested in an initial concentration (unless required otherwise) of 1 μM. After addition of the substance, the batch is again mixed thoroughly and carefully. For visual monitoring, all SF batches are photographed, and the pictures are filed in the eLabBio file for the corresponding experiment. […] The batches are incubated in the incubator for 48 h at 37° C. and 7.5% CO2.
The sampling is carried out after the pre-agreed times (unless required otherwise, see below). 200 μl of the SF are removed from the mixture per time and transferred directly into a 0.5 ml “low-binding” Eppendorf vessel. […]
The concentrations measured (ng/ml) are plotted against the time in a graph (GraphPad Prism®). The percentage stability of the substance is determined here. […]
All compounds measured remained stable (see Table 2 in Example 1).

[2] = molecular target: T1, cathepsin D isolated from the human liver (Homo sapiens, UniProt P07339); assay: In-vitro fluorescence assay for identification of cathepsin D inhibitors; format: biochemical; details: human liver cathepsin D 1.4 nM, pH 5.5; read-out: CatD assay IC50-(M)
T1 construct: cathepsin D isolated from the human liver (Sigma-Aldrich); purchased Sigma-Aldrich; host or cells: human liver (tissue-derived, not recombinant)
T1 sequence (P07339 65-161 limits assumed): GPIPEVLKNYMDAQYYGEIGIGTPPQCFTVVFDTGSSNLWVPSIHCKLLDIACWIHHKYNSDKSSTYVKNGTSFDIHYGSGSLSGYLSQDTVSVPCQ
T1 sequence (P07339 169-412 limits assumed): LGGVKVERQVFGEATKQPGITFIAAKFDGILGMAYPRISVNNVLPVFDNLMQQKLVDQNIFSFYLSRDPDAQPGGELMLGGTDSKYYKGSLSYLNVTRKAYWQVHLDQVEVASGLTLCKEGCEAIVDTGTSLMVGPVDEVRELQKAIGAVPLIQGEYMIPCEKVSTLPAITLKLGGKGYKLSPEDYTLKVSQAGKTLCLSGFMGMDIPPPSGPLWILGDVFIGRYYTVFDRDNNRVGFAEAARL
In short: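 Continuous FRET assay: human liver cathepsin D (1.4 nM final) preincubated 10 min at room temperature with serially diluted compound in 100 mM sodium acetate, 1.25% DMSO, 0.25% Chaps, pH 5.5. Started with 5 μM MCA-GKPILFFRLK(Dnp)d-R-NH2; fluorescence increase (ex 340/em 450 nm) over 60 min at room temperature compared with no-compound control.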

Row | Stability in synovial fluid [1] | IC50 [2] [M] | Compound
1 | stable | 3e-08 | CC[C@H](C)[C@H](NC(=O)C[C@H](O)[C@H](Cc1ccccc1)NC(=O)[C@@H](NC(=O)CCc1ccccc1)C(C)C)C(=O)N[C@H](C(=O)O)C(C)C [Compound 4, (S)-2-((2S,3S)-2-{(3S,4S)-3-hydroxy-4-[(S)-3-methyl-2-(3-phenyl-propionylamino)butyrylamino]-5-phenylpentanoylamino}-3-methylpentanoylamino)-3-methylbutyric acid]
2 | stable | 3.41e-08 | CC[C@H](C)[C@H](NC(=O)C[C@H](O)[C@H](Cc1ccccc1)NC(=O)[C@@H](NC(=O)CCCc1ccccc1)C(C)C)C(=O)N[C@H](C(=O)O)C(C)C [Compound 5, (S)-2-((2S,3S)-2-{(3S,4S)-3-hydroxy-4-[(S)-3-methyl-2-(4-phenyl-butyrylamino)butyrylamino]-5-phenylpentanoylamino}-3-methylpentanoylamino)-3-methylbutyric acid]
3 | stable | 1.2e-08 | CC[C@H](C)[C@H](NC(=O)C[C@H](O)[C@H](Cc1ccccc1)NC(=O)[C@@H](NC(=O)Cc1cccc(OC)c1)C(C)C)C(=O)N[C@H](C(=O)O)C(C)C [Compound 20, (S)-2-[(2S,3S)-2-((3S,4S)-3-hydroxy-4-{(S)-2-[2-(3-methoxyphenyl)-acetylamino]-3-methylbutyrylamino}-5-phenylpentanoylamino)-3-methylpentanoylamino]-3-methylbutyric acid]
